The record followed here is PubChem BioAssay (NCI).

Test systems include 786-0 renal; HL-60(TB) leukemia; K-562 leukemia; NCI-H226 lung; OVCAR-5 ovarian; PC-3 prostate; SK-OV-3 ovarian; UO-31 renal; NCI-H522 lung; RXF 393 renal.
What all share (assay): inhibition of tumour cell growth, NCI panel, 48 h

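Five compound concentrations were applied to cells in 96-well plates for 48 hours; endpoints were derived by simple linear interpolation of the resulting dose-response curve. GI50 is the concentration that inhibits growth by half. TGI is the concentration that stops growth completely.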

For `O=C(Nc1cccc(C(F)(F)F)c1)Nc1ccc(OCc2nnc(-c3ccccc3)o2)c(F)c1`, the GI50 is 6.18 µM in the assay on 786-0 renal; 2.58 µM in the assay on HL-60(TB) leukemia; 5.12 µM in the assay on K-562 leukemia; 10.7 µM in the assay on NCI-H226 lung; 18.9 µM in the assay on OVCAR-5 ovarian; 2.01 µM in the assay on PC-3 prostate. In addition, the GI50 with SK-OV-3 ovarian was 5.57 µM; in the assay with UO-31 renal, 3.11 µM. In addition, the TGI with 786-0 renal was 22.4 µM; with HL-60(TB) leukemia, 6.4 µM; in the assay with K-562 leukemia it was 47.2 µM; in the assay on NCI-H226 lung it was 52 µM; with OVCAR-5 ovarian it was > 100 µM; in the assay on PC-3 prostate, 13.7 µM. For the same compound, the TGI in the assay on SK-OV-3 ovarian was found to be 27.3 µM; with UO-31 renal, 21 µM.
For the compound `Cc1cccc2c1Oc1ncccc1C2NC(=O)CN(C)C` (stereo not drawn), the TGI with 786-0 renal, with HL-60(TB) leukemia, with K-562 leukemia, in the assay on NCI-H226 lung, with NCI-H522 lung and with OVCAR-5 ovarian was > 10 µM in each case. Moreover, the TGI with PC-3 prostate, in the assay with SK-OV-3 ovarian and with UO-31 renal was > 10 µM throughout.
For `COc1cccc2c(Nc3ccc(C(=O)NCCN4CCNCC4)cc3)cc(-c3ccccc3)nc12`, the GI50 in the assay on 786-0 renal was 51.1 µM; in the assay with K-562 leukemia it was 27.7 µM; in the assay with NCI-H226 lung it was > 100 µM; in the assay with NCI-H522 lung it was 15.8 µM; in the assay with OVCAR-5 ovarian it was > 100 µM; in the assay on PC-3 prostate, 25.8 µM. Also, the GI50 with RXF 393 renal is > 100 µM; in the assay on SK-OV-3 ovarian, > 100 µM; in the assay on UO-31 renal, 49.4 µM. Besides, the TGI with 786-0 renal was > 100 µM; in the assay on K-562 leukemia, 75.3 µM; in the assay with NCI-H226 lung, > 100 µM; in the assay on NCI-H522 lung, 30.5 µM; in the assay with OVCAR-5 ovarian, > 100 µM; in the assay with PC-3 prostate it was > 100 µM. In addition, the TGI in the assay on RXF 393 renal, in the assay with SK-OV-3 ovarian and in the assay on UO-31 renal was > 100 µM in each case.
With `O=NNc1nc(-c2ccccn2)nc2ccccc12`, the TGI in the assay on 786-0 renal is 39.9 µM; in the assay with HL-60(TB) leukemia, > 100 µM; in the assay on K-562 leukemia, > 100 µM; with NCI-H226 lung it was 62.5 µM; in the assay with NCI-H522 lung, 9.21 µM; with OVCAR-5 ovarian it was > 100 µM. In addition, the TGI in the assay on PC-3 prostate, in the assay on SK-OV-3 ovarian and in the assay with UO-31 renal was > 100 µM each time.
Regarding `ClCc1ccc(Cn2cnc3nc(Cl)nc(Cl)c32)cc1`, the GI50 was 0.417 µM with 786-0 renal; 2.52 µM in the assay with K-562 leukemia; 0.946 µM in the assay on NCI-H226 lung; 1.85 µM with NCI-H522 lung; 1.8 µM in the assay with OVCAR-5 ovarian; 2.9 µM in the assay on PC-3 prostate. Also, the GI50 is 1.3 µM with RXF 393 renal, 2.36 µM in the assay with SK-OV-3 ovarian and 1.41 µM with UO-31 renal. The TGI is 0.89 µM with 786-0 renal; > 28.8 µM with K-562 leukemia; 2.92 µM with NCI-H226 lung; 4.41 µM in the assay with NCI-H522 lung; 3.54 µM in the assay on OVCAR-5 ovarian; 7.98 µM in the assay with PC-3 prostate. Also, the figures for the TGI in the assay with RXF 393 renal, in the assay with SK-OV-3 ovarian and in the assay with UO-31 renal were 3.24 µM, 5.7 µM and 2.88 µM, respectively.
As for `C=CCCC1(CCP(=O)(c2ccccc2)c2ccccc2)OCCO1`, the TGI with 786-0 renal, in the assay with HL-60(TB) leukemia, with K-562 leukemia, in the assay with NCI-H522 lung, in the assay on OVCAR-5 ovarian and with PC-3 prostate was > 100 µM in each case. Besides, the TGI in the assay on RXF 393 renal and in the assay on UO-31 renal was > 100 µM in each case.
For the compound `CC(C)C12CCC3(CCC4C(C)(C(=O)O)CCCC4(C)C3C1)C(CN)C2` (stereo not drawn), the TGI in the assay on 786-0 renal was 54.4 µM; with NCI-H226 lung, > 100 µM; in the assay on NCI-H522 lung it was 70.3 µM; in the assay on OVCAR-5 ovarian, 90.4 µM; with PC-3 prostate, > 100 µM; with RXF 393 renal, > 100 µM. Moreover, the TGI in the assay with SK-OV-3 ovarian and in the assay with UO-31 renal was > 100 µM each time.
Turning to `Brc1ccc2c(c1)-c1ccccc1C1=NCCN12`, the GI50 is 1.61 µM in the assay on 786-0 renal; 2.45 µM in the assay on HL-60(TB) leukemia; 0.857 µM in the assay with K-562 leukemia; 0.762 µM in the assay with NCI-H522 lung; 1.64 µM in the assay with OVCAR-5 ovarian; 0.763 µM in the assay with PC-3 prostate. Besides, the values for the GI50 in the assay with RXF 393 renal, in the assay on SK-OV-3 ovarian and in the assay on UO-31 renal were 1.29 µM, 2.88 µM and 0.585 µM, respectively. The TGI in the assay with 786-0 renal was 11.7 µM; in the assay with HL-60(TB) leukemia, 5.65 µM; in the assay with K-562 leukemia, 5.1 µM; in the assay with NCI-H522 lung it was 2.75 µM; in the assay with OVCAR-5 ovarian it was 10.4 µM; in the assay with PC-3 prostate, 11 µM. In addition, the figures for the TGI in the assay on RXF 393 renal, in the assay on SK-OV-3 ovarian and in the assay with UO-31 renal were 3.23 µM, 16.6 µM and 3.81 µM, respectively.
Turning to `CC1=C(C(=O)OC(C)(C)C)C(c2ccc([N+](=O)[O-])cc2)C(C(=O)OC(C)(C)C)=C(C)N1`, the TGI with 786-0 renal is 38.7 µM; with K-562 leukemia, 54 µM; in the assay with NCI-H226 lung, 39.1 µM; in the assay on NCI-H522 lung, 36.4 µM; with OVCAR-5 ovarian, 34.9 µM; with PC-3 prostate it was 45.1 µM. Moreover, the TGI in the assay with RXF 393 renal is 36.2 µM; in the assay on SK-OV-3 ovarian, 73.3 µM; in the assay with UO-31 renal it was 33.5 µM.
Regarding `O=C(/C=C/N1CCN(c2cccc(Cl)c2)CC1)c1ccc(Cl)cc1`, the GI50 in the assay with 786-0 renal was 33.9 µM; with K-562 leukemia it was 28 µM; with NCI-H522 lung it was 18.9 µM; with OVCAR-5 ovarian it was 49.7 µM; in the assay with PC-3 prostate, 25.3 µM; with RXF 393 renal, 39.1 µM. Also, the GI50 was 50.9 µM in the assay on SK-OV-3 ovarian and 31.5 µM in the assay on UO-31 renal. Also, the TGI is > 100 µM in the assay on 786-0 renal; > 100 µM in the assay on K-562 leukemia; 54.6 µM with NCI-H522 lung; > 100 µM in the assay on OVCAR-5 ovarian; > 100 µM with PC-3 prostate; > 100 µM in the assay with RXF 393 renal. Moreover, the TGI in the assay on SK-OV-3 ovarian and in the assay with UO-31 renal was > 100 µM each time.
As to `COc1cc(COC(=O)NC(Cc2cccs2)C(=O)O)c([N+](=O)[O-])cc1OC` (stereo not drawn), the TGI in the assay with 786-0 renal, with HL-60(TB) leukemia, in the assay with K-562 leukemia, in the assay with NCI-H226 lung, with OVCAR-5 ovarian and in the assay with PC-3 prostate was > 100 µM each time. For the same compound, the TGI in the assay with RXF 393 renal, with SK-OV-3 ovarian and with UO-31 renal was > 100 µM in each case.
`Cc1cc2c(SCc3ccccc3Cl)nc(N)nc2nc1C`: the TGI in the assay with 786-0 renal, in the assay with HL-60(TB) leukemia, with NCI-H522 lung, with OVCAR-5 ovarian, in the assay with PC-3 prostate and in the assay on RXF 393 renal was > 100 µM throughout. Besides, the TGI in the assay on SK-OV-3 ovarian and in the assay with UO-31 renal was > 100 µM each time.
As to `N#Cc1c(N)nc(N2CCOCC2)c(C#N)c1-c1ccc(Cl)cc1Cl`, the GI50 in the assay with 786-0 renal was 19.5 µM; in the assay on K-562 leukemia, 23.9 µM; in the assay on NCI-H226 lung, 26.9 µM; in the assay on NCI-H522 lung, 4.77 µM; in the assay on OVCAR-5 ovarian, 23.1 µM; in the assay on PC-3 prostate, 10.9 µM. Also, the GI50 is 5.67 µM in the assay on RXF 393 renal, 22.2 µM in the assay on SK-OV-3 ovarian and 3.26 µM in the assay with UO-31 renal. The TGI with 786-0 renal was 44.8 µM; in the assay on K-562 leukemia it was 99.1 µM; in the assay with NCI-H226 lung, > 100 µM; with NCI-H522 lung, 18.4 µM; in the assay with OVCAR-5 ovarian, 71.2 µM; in the assay on PC-3 prostate, 35.2 µM. Moreover, the results for the TGI in the assay with RXF 393 renal, in the assay with SK-OV-3 ovarian and in the assay with UO-31 renal were 38.4 µM, 91.1 µM and 15.8 µM, respectively.
As for `CN(C)C(=O)c1cc2cnc(Nc3ccc(N4CCNCC4)cn3)nc2n1C1CCCC1`, the GI50 is 11.4 µM in the assay with 786-0 renal; 1.74 µM in the assay with HL-60(TB) leukemia; 17.6 µM in the assay with K-562 leukemia; 25.2 µM with NCI-H226 lung; 1.45 µM in the assay with OVCAR-5 ovarian; 1.01 µM with PC-3 prostate. Further, the GI50 is 34.8 µM in the assay on SK-OV-3 ovarian and 4.56 µM with UO-31 renal. In addition, the TGI in the assay with 786-0 renal is 49.8 µM; with HL-60(TB) leukemia, 28.1 µM; in the assay on K-562 leukemia, > 100 µM; in the assay on NCI-H226 lung, > 100 µM; in the assay on OVCAR-5 ovarian it was 73.1 µM; with PC-3 prostate, 62.9 µM. Further, the TGI was > 100 µM with SK-OV-3 ovarian and 62.1 µM in the assay with UO-31 renal.
Turning to `COc1cc2c(cc1OCCCN1CCN(CCCn3c4ccccc4c4ccccc43)CC1)N=C[C@@H]1CCCN1C2=O`, the GI50 with 786-0 renal was 0.28 µM; with HL-60(TB) leukemia, 0.0249 µM; in the assay on NCI-H226 lung it was 0.323 µM; with OVCAR-5 ovarian it was 0.0625 µM; with PC-3 prostate, 0.0585 µM; in the assay on SK-OV-3 ovarian, 0.32 µM. In the assay on UO-31 renal, the GI50 was 0.174 µM. Besides, the TGI in the assay with 786-0 renal was determined as 1.01 µM; in the assay with NCI-H226 lung it was 1.48 µM; with NCI-H522 lung, 0.182 µM; in the assay with OVCAR-5 ovarian, 0.648 µM; in the assay with PC-3 prostate it was 0.523 µM; in the assay on SK-OV-3 ovarian, 1.27 µM. Also, in the assay with UO-31 renal, the TGI came out at 0.491 µM.
In the case of `Cc1cc(C2(c3cc(C)c(O)c4ncccc34)OC(=O)c3ccccc32)c2cccnc2c1O`, the GI50 was 0.114 µM in the assay on 786-0 renal and 0.0957 µM in the assay with PC-3 prostate. Moreover, the TGI in the assay with 786-0 renal, with K-562 leukemia, in the assay on NCI-H522 lung, in the assay with OVCAR-5 ovarian, with PC-3 prostate and in the assay with RXF 393 renal was > 100 µM in each case. In the assay on SK-OV-3 ovarian, this compound registered a TGI of 21.9 µM.
